The record followed here is US20140294873A1, “SMALL MOLECULE SCREEN FOR INHIBITORS OF NFAT: AP-1: DNA INTERACTIONS” (CHILDREN'S MEDICAL CENTER CORPORATION, priority 2011, published 2014).

Data set [1] concerns the target T1, NFAT:DNA complex (Homo sapiens, UniProt Q13469).
T1 construct: The NFAT DBD containing a His tag was cloned into the pQE vector; His tag (MRGSHHHHHH leader) (N); made in house
T1 sequence (Q13469 with tags, fused parts or gaps): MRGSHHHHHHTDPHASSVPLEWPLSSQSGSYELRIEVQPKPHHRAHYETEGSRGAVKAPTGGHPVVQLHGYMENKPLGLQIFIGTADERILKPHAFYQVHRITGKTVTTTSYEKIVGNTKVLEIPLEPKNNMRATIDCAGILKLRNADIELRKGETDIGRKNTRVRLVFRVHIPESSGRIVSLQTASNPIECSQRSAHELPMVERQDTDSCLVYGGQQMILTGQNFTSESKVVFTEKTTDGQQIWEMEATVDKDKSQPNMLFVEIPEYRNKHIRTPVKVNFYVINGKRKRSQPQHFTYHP
Nature of the data set: EMSA, NFAT:DNA complex. Format: binding. The following applies: high concentration (6.25 mM). As to the method: (§1) EMSAs: Probe labeling: Annealed double-stranded ARRE2 was end-labeled using T4 polynucleotide kinase by incubating 50-100 ng DNA with 20 μCi 32P-γATP (Perkin Elmer) at 37° C. for 1 h followed by heat inactivation of the enzyme at 65° C. for 15′ and purification of radiolabeled ARRE2 using MicroSpin G-25 columns (GE Biosciences).
(§2) Binding reactions were set up in EMSA buffer (10 mM HEPES pH=7.5, 120 mM NaCl, 10% glycerol, 0.8 mg/mL BSA, 1 mM DTT) in the presence of complete protease inhibitor (Roche). Compounds CID 2740816 (1668 P02) and CID 5713461 (1661 N20) (Ryan Scientific) were resuspended in DMSO and incubated with 20 nM NFAT and 10 nM AP-1 for 10′ followed by addition of ˜2.5 nM radiolabeled ARRE2 probe. Reactions were then incubated for 30′ at room temperature and loaded on a 4% polyacrylamide gel (pre-run for 30-45′).

In data set [2] the test system is IL-2 and TNFα production in activated CD4 T cells. Nature of the data set: Intracellular cytokine FACS in restimulated CD4 T cells. Format: cell-based, mouse. The conditions noted are these: for inhibition of IL-2/TNFα production: restimulation with αCD3/αCD28 instead of PMA/ionomycin. As to the method: (§3) T cell activation assays: Mouse CD4 T cells were isolated using the Dynal CD4 T cell positive isolation kit (Invitrogen) and activated with 1 μg/mL αCD3/αCD28 for 48-60 h under non-polarizing or Th1-conditions (10 ng/mL IL-12 and 10 μg/mL αIL-4). CD4CD25+ T cells were depleted from purified CD4 T cells using a CD25 microbead MACS kit (Miltenyi Biotech), and CD4CD25− T cells were activated with αCD3/αCD28 in the presence of 3 ng/mL TGF[…] (iTreg-polarizing conditions).
(§4) For restimulation, T cells from primary cultures were rested for 3-4 d, washed, counted and stimulated for 4 h with 10 nM PMA and varied concentrations of ionomycin; where indicated, CsA was added to cells at a final concentration of 2 μM 20′ before activation while compounds were added 45-60′ before activation. Brefeldin A was added at 10 μg/mL for the final 2-2.5 h of stimulation. T cells were fixed with 4% paraformaldehyde, permeabilized in saponin buffer and stained for intracellular cytokines; data were collected on a FACSCalibur instrument (BD Biosciences).

Data set [3] concerns CD4 T cells. Nature of the data set: Cytotoxicity / live cell numbers in restimulated CD4 T cells. The following applies: for cell numbers within the live cell gate: 4 h restimulation with compound; for cytotoxicity: at the concentrations tested. Format: cell-based, mouse. Here is the method: as §4
Data set [4] relates to IL-17 in CD4 T cells. The data set is described as follows: IL-17 levels after compound treatment during primary Th17 differentiation. Format: cell-based, mouse.
Data set [5] has as its target T2, NFAT:AP-1:DNA complex (Homo sapiens, UniProt P01100+P05412+Q13469, C154S/C269S).
T2 construct: The NFAT DBD containing a His tag was cloned into the pQE vector; Fos and Jun bZIP domains (each encompassing 63 amino acids) were cloned into pETa vectors; His tag ([…] leader) (N); made in house; host or cells: E. coli Codon Plus BL21 (DE3) RIL for Fos and Jun; bacterial expression from a pQE vector for NFAT DBD
Nature of the data set: EMSA, NFAT:AP-1:DNA complex formation. Format: binding. The conditions noted are these: for assembly of the ternary complex: 6.25 mM compound; for inhibition of formation of the NFAT:AP-1:DNA complex: 32P end-labeled ARRE2, compound added before probe; for inhibition of NFAT:AP-1:DNA complex formation: compound in the 0-300 μM range. Here is the method:
as §1, §2

The test system of data set [6] is proinflammatory mediator mRNA in Th1 cells. Nature of the data set: Real time RT-PCR of T cells used for EAE induction. Format: cell-based, mouse. The following applies: for IL-2 mRNA transcript / IL-24 transcript levels / IP-10 transcript levels: compared to DMSO controls. The text has this:
(§5) Real time RT-PCR: Total RNA was isolated from cell pellets using the RNeasy kit (Qiagen) followed by first-strand synthesis using SuperScript III (Invitrogen). Synthesized cDNA was amplified using the FastStart Universal SYBRGreen Master Mix (Roche). PCR data was collected using the StepOne Plus Real-Time PCR System (Applied Biosystems) and gene expression normalized to an endogenous GAPDH control using the ΔΔCT method; primer sequences have been described elsewhere.

Data set [7] relates to EAE in C57BL/6 mice. The data set is described as follows: Passive transfer EAE with compound-treated 2D2 Th1 cells. The class given is in vivo, mouse. As to the method: EAE induction: CD4 T cells from 2D2 transgenic mice were activated with 0.2 μg/mL αCD3/αCD28 under Th1-polarizing conditions for 48-60 h in the presence of DMSO or compound as indicated. T cells were rested and expanded for 2 d followed by restimulation with 0.1 μg/mL αCD3/αCD28 for 24 h in the presence of DMSO or compound. Cells were resuspended in 1×PBS and injected intraperitoneally into female 8 wk old C57BL/6 mice, 1.5 million T cells per mouse. Mice were monitored for weight loss and development of disease symptoms using a standard clinical scale: 0, healthy; 1, flaccid tail; 2, ataxia/paresis of hind limbs; 3, paralysis of hind limbs; 4, tetraparalysis; 5, moribund or death W.

The subject of data set [8] is CD69. Nature of the data set: CD69 upregulation in restimulated CD4 T cells. Format: cell-based, mouse. The following applies: 4 h activation period, also at high concentrations. As to the method:
as §4

In data set [9] the test system is IFNγ production in 2D2 CD4 T cells. The data set is described as follows: IFNγ production after compound treatment during Th1 activation. The conditions noted are these: 7.8 μM during activation under Th1 conditions, compared to DMSO. The class given is cell-based, mouse. Here is the method:
as §3, §4

Data set [10] deals with Foxp3. Nature of the data set: Treg-associated gene upregulation under iTreg-polarizing conditions (real time RT-PCR). The class given is cell-based, mouse. The following applies: activation in the presence of TGFβ (iTreg polarizing). As to the method:
as §3, §5

The target of data set [11] is T3, NFAT DNA-binding domain (NFAT-DBD) (UniProt Q13469 SEQ:15-300).
T3 chain: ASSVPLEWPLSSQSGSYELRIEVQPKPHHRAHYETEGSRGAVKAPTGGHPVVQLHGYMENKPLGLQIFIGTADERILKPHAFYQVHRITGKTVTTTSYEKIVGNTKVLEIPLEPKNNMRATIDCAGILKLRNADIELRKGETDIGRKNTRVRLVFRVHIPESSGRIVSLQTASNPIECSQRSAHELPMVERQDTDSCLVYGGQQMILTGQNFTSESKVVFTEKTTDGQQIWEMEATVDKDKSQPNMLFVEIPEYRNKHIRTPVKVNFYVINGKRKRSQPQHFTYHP
The data set is described as follows: EMSA. The following applies: tags: His tag (MRGSHHHH..), pQE vector, E. coli; label: 32P 5'-end.

Where [12] appears, read: 10 nM PMA, ionomycin 100 nM or 300 nM.
[13] abbreviates: 10 nM PMA/100 nM ionomycin, 4 h.
The mark [14] stands for this setting: Th1 cells treated with 7.8 μM compound, IP transfer.
[15] abbreviates: compared to 1668 P02- or DMSO-treated Th1 transfer groups.

“Also recorded” adds a separate entry of the source. Where only a bound is given, the exact number is not on record here.

T2 sequence (P01100 with tags, fused parts or gaps C154S, one chain of several): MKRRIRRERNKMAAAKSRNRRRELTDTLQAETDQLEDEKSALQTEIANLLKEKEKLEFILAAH
T2 sequence (P05412 with tags, fused parts or gaps C269S, one chain of several): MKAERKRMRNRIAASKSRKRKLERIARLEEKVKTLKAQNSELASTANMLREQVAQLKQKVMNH

Turning to `N#C/C(=N/Nc1ccc2c(c1)OCO2)C(=O)N1CCCC1` [1661 N20], the “effect on the NFAT:DNA complex” value in data set [1] is reported as “unaffected; also recorded: neither compound had an inhibitory effect”. In data set [2] (setting [12]), the “reduction in MFI of IL-2” value is not above 50% and the “reduction in MFI of TNFα” value was not above 50%. Moreover, the “inhibition of IL-2 and TNFα production” value in [2] (setting [13]) is reported as “inhibit production”. Also, in data set [2] (10 nM PMA/500 nM ionomycin), the “inhibition of IL-2 and TNFα production” value is given as “inhibitory”. Also, the “inhibition of IL-2/TNFα production” value in data set [2] is “acute inhibition”. Further, in data set [3], the “cell numbers within the live cell gate” value is “no apparent change; also recorded: unchanged” and the cytotoxicity entry is reported as “neither compound appeared to be cytotoxic”. Moreover, in data set [4], the “IL-17 levels upon restimulation” value is “remained unchanged”. In data set [5], the “assembly of the ternary complex” value is “almost abrogate”, the “inhibition of formation of the NFAT:AP-1:DNA complex” value is “modestly inhibit” and the “inhibition of NFAT:AP-1:DNA complex formation” value is recorded as “modest inhibition”. In data set [6], the “IL-2 mRNA transcript” value is recorded as “highly significant reduction”, the IL-24 transcript levels entry was “remained unchanged” and the IP-10 transcript levels entry is recorded as “actually higher”. Moreover, in [6] (relative to DMSO controls), the GM-CSF transcript levels result is on record as “significantly reduced” and the “levels of IFNγ mRNA” value is “significantly reduced”. Also, in [7] (setting [14]), the “kinetics of disease development” value was “clearly delayed kinetics” and the “severity of clinical symptoms of EAE” value is “reduced severity; also recorded: decreased severity”. Besides, in data set [7] (setting [15]), the mean clinical score result is recorded as “significantly lower” and the percentage weight loss entry was “significantly lower”. Further, the “upregulation of CD69” value in [8] is “not affected; also recorded: unaffected”. In data set [9], the “levels of IFNγ production” value is “slight decrease”. In addition, in [10], the “upregulation of Treg-associated genes, notably Foxp3” value is given as “did not affect”.

Consider `O=C1CCCC(=O)C1=NNc1cc(C(F)(F)F)ccc1OCC(F)(F)F` [1668 P02], for which the “effect on the NFAT:DNA complex” value in [1] is listed as “unaffected; also recorded: neither compound had an inhibitory effect”. In data set [2] (setting [13]), the “inhibition of IL-2 and TNFα production” value is “inhibit production”. Besides, the “inhibition of IL-2 and TNFα production” value in [2] (10 nM PMA/500 nM ionomycin) is given as “to a lesser extent”. Further, the “inhibition of IL-2/TNFα production” value in data set [2] is reported as “acute inhibition”. Also, in data set [3], the “cell numbers within the live cell gate” value is on record as “no apparent change; also recorded: unchanged” and the cytotoxicity result is reported as “neither compound appeared to be cytotoxic”. Moreover, the “IL-17 levels upon restimulation” value in data set [4] is “remained unchanged”. In addition, in data set [5], the “assembly of the ternary complex” value is on record as “almost abrogate”, the “inhibition of formation of the NFAT:AP-1:DNA complex” value is given as “modestly inhibit” and the “inhibition of NFAT:AP-1:DNA complex formation” value was “modest inhibition”. In [6], the “IL-2 mRNA transcript” value was “not statistically significant”, the IL-24 transcript levels result is given as “remained unchanged” and the IP-10 transcript levels entry was “actually higher”. The “disease curve relative to DMSO-treated Th1 transfer group” value in data set [7] (Th1 cells treated with compound, IP transfer) is “overlapping disease curves”. In addition, in [8], the “upregulation of CD69” value is on record as “not affected; also recorded: unaffected”. Also, the “levels of IFNγ production” value in [9] is “slight decrease”. The “upregulation of Treg-associated genes, notably Foxp3” value in [10] is recorded as “did not affect”.

B1: ARRE2 probe, 32P (dsDNA)
DNA 1: CCTTCTGTATGAAACAAATTTTCCTCTTTG
DNA 2: CAAAGAGGAAAATTTGTTTCATACAGAAGG
For the molecule B1, the binding result in data set [11] is recorded as “binds”.
